Data on one compound can be found in EP2667887B1, “PHARMACEUTICAL COMPOSITION COMPRISING THE PEPTIDE GLU-ASP-GLY AND USE FOR TREATING HELICOBACTER PYLORI INDUCED GASTRODUODENAL DISEASES” («Garmonia», Ltd., priority 2011, dated 2012).

Assay [1] deals with modeled ulcer. Kind of assay: Morphology study of the induced gastric ulcer (cysteamine-HCL + Helicobacter pylori). Particulars: treatment daily for 5 days, Klacid 10 mg intramuscularly. It is filed as in vivo, Sprague Dawley rats. How it is done:
The study was carried out on 90 male Sprague Dawley rats (180-220 g) randomly subdivided into 9 groups (10 animals per group): • Group 1 - intact rats (saline solution) • Group 2 - modeled ulcer + saline solution • Group 3 (6 subgroups) - modeled ulcer + H-Glu-Asp-Gly-OH • Group 4 - modeled ulcer + Klacid antibiotic
Ulcer was modeled by three-time administration (in 4 hours) in the rat stomach of cysteamine-HCL (Aldrich, Milwannee, WI) by means of a probe in the dose of 25 mg per 100 g of body weight. The ulcer, approximately 28 mm^2 in size, appeared at the boundary between antral and fundal segments of the stomach 12 hours after the last administration. Simultaneously with the first administration of cysteamine-HCL a Helicobacter pylori culture (Curtin Matheson Scientific Inc, strain Cag J117, 100 microbial cells) was administered in the rat stomach through the same probe.
A means on the basis of the pharmaceutical composition comprising the studied peptide H-Glu-Asp-Gly-OH was administered subcutaneously in the dose of 1 µg per kg of animal body weight (group 3a), 2,5 µg per kg of body weight (group 3b) and 10 µg per kg of body weight (group 3c) in 0,5 ml of saline solution daily, for 5 days from the occurrence of the stomach ulcer.
The means on the basis of the pharmaceutical composition comprising the studied peptide H-Glu-Asp-Gly-OH was administered intragastrically (through a probe) in the dose of 1 µg per kg of animal body weight (group 3d), 2,5 µg per kg of body weight (group 3e) and 10 µg per kg of body weight (group 3f) in 0,5 ml of saline solution daily, for 5 days from the occurrence of the stomach ulcer.
Antibiotic Klacid (clarithromycin, Abbott) was administered intramuscularly in the dose of 10 mg in 1 ml of saline solution daily for 5 days from the occurrence of the stomach ulcer.
Material for study was taken from ulcer edge on the 7th day (for western blot assay and polymerase chain reaction in real time - RT-PCR), as well as on the 7th, 15th and 21st day for morphology study and confocal microscopy.
For a morphology study, pieces of gastric mucous membrane from the ulcer edge were fixed in 10% neutral formalin (pH 7.2), then the material was dried out in a Leica TP1020 automatic station (Leica) and covered with paraffin. 5 µm thick paraffin slices were placed on object plates covered with a poly-L-lysine film (Sigma). For a visual study the slices were stained with hematoxylin and eosin, as well as with picrofuxin by the van Gison method.

For assay [2], the system named is human gastric epithelium cells SGC7901. Kind of assay: Effect on Helicobacter pylori-induced mitochondrial mechanisms of apoptosis in gastric epitheliocytes (mito-GFP confocal microscopy). It is filed as cell-based. The settings on record: Klacid 500 ng/mL as positive control, same conditions as peptide 10 µM. On the procedure: To evaluate the biological activity and effects of peptide H-Glu-Asp-Gly-OH on mitochondrial mechanisms of apoptosis in gastric epitheliocytes, induced by Helicobacter pylori germs, human gastric epithelium cells SGC7901 were studied. The cells were cultivated at 37°C in a damp incubation medium containing 50 mL/L CO2 in DMEM (Dulbecco's Modified Eagle's Medium, ICN Biomedicals) and 10% calf embryonic serum. A preliminary separation of cells for passaging was carried out in the ratio of 1:3-1:5 using a mixture of 0.125% trypsin, 0.02M EDTA (ethylenediaminetetraacetic acid), 0.02% glucose dissolved in a phosphate buffer. The cells were placed on a 24-well plate in the amount of 10^6 cells per well. The cells were passaged in a cultivation medium for 5 days and then taken for study.
On the 5th day after the beginning of cell passaging the peptide H-Glu-Asp-Gly-OH in the dose of 10 µM was administered in the cultivation medium, and in 30 minutes of incubation the cells were taken for study. Klacid antibiotic (clarithromycin, Abbott) in the dose of 500 ng/mL was administered to the cultures in the same conditions as positive control. […]
The status of isolated mitochondria was evaluated using immunofluorescent confocal laser microscopy. […]
Confocal microscopy of mitochondria with optical density evaluation was performed in an inverted confocal microscope Olympus Fluoview CM FV300-IX70 using an apochromatic lens 606 UPlan (Olympus). A 488 nm excitation wave of argon laser was used in each chamber to specify mito-GFP fluorescence that verifies the structure of mitochondria.

Turning to `CC[C@H]1OC(=O)[C@H](C)[C@@H](O[C@H]2C[C@@](C)(OC)[C@@H](O)[C@H](C)O2)[C@H](C)[C@@H](O[C@@H]2O[C@H](C)C[C@H](N(C)C)[C@H]2O)[C@](C)(OC)C[C@@H](C)C(=O)[C@H](C)[C@@H](O)[C@]1(C)O` [Klacid, clarithromycin], the “ulcer pathomorphosis, 7th day” value in assay [1] (7th day after ulcer induction, peptide 1, 2,5, 10 µg/kg subcutaneously or intragastrically) is reported as “largely similar to the changes in Group 3”. Besides, in assay [1] (15th day after ulcer induction, peptide 1, 2,5, 10 µg/kg subcutaneously or intragastrically), the “ulcer pathomorphosis, 15th day” value is “The same changes were observed”. Besides, in assay [1] (21st day after ulcer induction, peptide both methods of administration and three dosages), the “ulcer pathomorphosis, 21st day” value is given as “caused the same changes”. Moreover, the “biological activity (prevention of Helicobacter pylori-induced mitochondrial apoptosis disorder) relative to the peptide composition” value in assay [2] is recorded as “comparable in terms of efficiency”.
